# Measurements published in patent publication US20230174649A1, “PHARMACEUTICAL COMPOSITIONS CONTAINING ANTI-CD47 ANTIBODIES” (I-MAB BIOPHARMA US LIMITED, priority 2020, published 2023).
# Several values for one entry are separate records, joined by “and”; a condition that tells them apart may be missing. Equal entries are not always repeated.
# How the values were obtained:
# Toledo Cells = assay: FACS-based phagocytosis assay, macrophages cocultured with Toledo cells; type: cell-based, Human
# Experimental: FACS-based phagocytosis assays were performed to evaluate the phagocytic abilities of macrophages.
# Toledo Cells (a tumor cell line, as a target) were labelled with CellTrace™ Far Red and plated into 96-well plate at a density of 0.15×10^6 cells/well for 12 hours. The Macrophages were prepared as discussed above and then labelled with CellTrace Violet. Next, the macrophages were added into the plate as an effector at an effector:target (Toledo) ratio of 1:3, giving a final density of macrophages at 0.05×10^6 cells/well. Macrophages and tumor cells were cocultured for 2-6 h at 37° C. in the presence of the indicated treatments (small molecule therapeutic agents, CD47 antibody, CD20 antibody or combinations). The incubation time depending on the phagocytosis rate, expecting phagocytosis of 5-20% cells.
# Then, cells were acquired and data were analyzed.
# WSU-DLCL2 cells = assay: Anti-tumor efficacy in WSU-DLCL2 tumor xenograft model; type: in vivo, NOD/SCID mice; details: 5 mg/kg each agent; for T/C (%) / TGI (%): day 43
# Source text: To establish the xenograft model, human diffuse large B Cell lymphoma (WSU-DLCL2 cells) were subcutaneously (s.c.) injected into 6- to 7-week-old NOD/SCID mice (Shanghai Lingchang Biotechnology Co., Ltd, Shanghai, China) for tumor development. When tumor volume reaches a mean value of approximately 94 mm^3, 32 mice were divided into 4 groups of 8 equally and injected intravenously (i.v.) with PBS (control group), anti-CD47 antibody (i.e. T4J), rituximab, or anti-CD47 antibody T4J+ rituximab at a dose of 5 mg/kg, respectively (See, Table 5). The anti-tumor efficacy studies were performed using a twice per week dosing schedule (5 mg/kg) for 4 weeks.
# The first day of antibody administration was designated as day 0. Mice were then monitored for tumor development and progression, and observation continued until day 43. Tumor volumes were measured twice a week in two dimensions (length and width) using a caliper, and the volumes were calculated using the following formula: Volume (V)=(L×W×W)/2, where L is tumor length (the longest tumor dimension) and W is tumor width (the longest tumor dimension perpendicular to L). The percentage of tumor growth inhibition (TGI) was calculated as follows: 100%×(1−[(Vtreated(^finalday)−Vtreated(^initial day))/(Vcontrol(^final day)−Vcontrol(^initial day)))]), where V is the tumor volume. Tumor body weight was measured twice per week after randomization and at day 43. Antibody treatment was then stopped after 43 days of study and mice were euthanized and necropsied for evidence of tumors.
# Group comparisons were carried out using one-way analysis of variance (ANOVA). Data analysis were performed using IBM SPSS software version 18.0 (IBM, Armonk, N.Y., U.S.). Values of tumor volume and tumor body weight were expressed as mean±standard error of the mean (SEM). A P value of less than 0.05 (p<0.05) was considered statistically significant.
# [1] = from tumor volume, i.v., BIW × 4 weeks
substance,measurement,setting,value
"Rituximab: anti-CD20 antibody, heavy chain SEQ ID NO: 83, light chain SEQ ID NO: 84",macrophage phagocytosis (untreated = 1.00),"Toledo Cells; Cpd 0, T4J = 0, R = 0.01 ug/ml, listed as R",1.36 and 1.31 and 1.57 and 1.38
same,phagocytic ability of macrophages,Toledo Cells; agent itself or antibody combination,can promote macrophage phagocytosis
same,Tumor Body Weight (mg) on day 43 (Mean ± SEM),"WSU-DLCL2 cells; i.v., BIW × 4 weeks",1673.7 ± 269.0 mg
same,Tumor Volume (mm^3) on day 43 (Mean ± SEM),"WSU-DLCL2 cells; i.v., BIW × 4 weeks",1578.37 ± 241.53 mm^3
same,T/C (%),WSU-DLCL2 cells; from tumor body weight,66%
same,TGI (%),WSU-DLCL2 cells; from tumor body weight,34%
same,T/C (%),WSU-DLCL2 cells; [1],73%
same,TGI (%),WSU-DLCL2 cells; [1],27%
